Measured values reported in a compilation of properties of binary mixtures (doi:10.1021/je1012444).

Assay: xn = mol fraction of the nth substance listed
Settings: 100 kPa

CCCC[n+]1ccn(C)c1.F[P-](F)(F)(F)(F)F + c1ccccc1
viscosity [mPa·s]
Settings	x2 = 0.0999	x2 = 0.2002	x2 = 0.3003	x2 = 0.3953	x2 = 0.5001	x2 = 0.6779
313.2 K	54.8	40.7	29	18.5	11.2	7.2
333.2 K	26.9	22	15.1	9.6	7.6	–
